Experimental data reported in patent US7846903B2, “Type II cubic liquid crystal composition” (National Institute of Advanced Industrial Science and …, priority 2004, dated 2010).

What was measured:
[1] = Krafft temperature (TK) by DSC of amphiphilic compound/water system; assay type: physicochemical; settings: for TK (Krafft temperature): compound/water system
Experimental: Liquid crystals such as cubic liquid crystals formed by amphiphilic lipids are formed only at the Krafft temperature (TK), as determined depending on types and concentrations of amphiphilic lipids, or higher. Furthermore, liquid crystals generally undergo a phase transition upon changes in the concentration of the amphiphilic lipid or temperature. Accordingly, the maximal temperature (Tmax) at which a given liquid crystal structure can be stably present is also determined depending on lipid type and concentration of amphiphilic lipid. Thus, a liquid crystal structure formed by a given type of amphiphilic lipid is stably formed in the temperature range between TK and Tmax. The correlation between TK-Tmax and the concentration of the amphiphilic lipid is generally indicated as a “concentration-temperature dependent phase diagram” of the amphiphilic lipid/water system. The Krafft temperature of the amphiphilic lipid can be determined by a method known in the art, such as a method involving the preparation of such a phase diagram (e.g., Laughlin, R. G., “The Aqueous Phase Behavior of Surfactants,” 1994, Academic Press London, pp. 106-117). The Krafft temperature of a mixture of two or more amphiphilic lipids can be determined by the same method.
In the cubic liquid crystal composition of the present invention, stable bicontinuous type II cubic liquid crystals are formed at low temperatures, such as lower than 6° C. In the liquid crystal composition of the present invention, stable bicontinuous type II cubic liquid crystals are typically formed between −10° C. (or at the freezing temperature of the aqueous medium used or higher) and 80° C., and preferably between 0° C. and 50° C. The Krafft temperature of the amphiphilic lipid can be easily determined by, for example, DSC assay of an aqueous solution containing 1% to 85% by mass of amphiphilic lipid or by observing the melting behavior of the amphiphilic lipid under a (polarizing) microscope. More precisely, such temperature may be determined in accordance with a conventional technique involving the preparation of a phase diagram (e.g., Laughlin, R. G., “The Aqueous Phase Behavior of Surfactants,” 1994, Academic Press, London, pp. 106-117).
The Krafft temperatures of these amphiphilic compounds and mixtures thereof determined by the analyses described below are shown in Table 2-1 and Table 2-2.
Subsequently, the sample of mono-O-(phytanyl)pentaerythritol/water system was subjected to differential scanning calorimetry (DSC) in a temperature range between −45° C. and 70° C. DSC analysis employed the Seiko SSC/560U differential scanning calorimeter (Seiko Instruments Inc.). The sample of mono-O-(phytanyl)pentaerythritol/water system (72.4% by mass) prepared by the above method was sealed in a DSC cell, and the sample was incubated while cooling at −45° C. for 3 hours to thoroughly form a hydrated solid of mono-O-(phytanyl)pentaerythritol (hereafter abbreviated as “hydrated solid”). Subsequently, this hydrated solid was heated at a rate of temperature increase of 0.5° C./minute and a melting behavior of the hydrated solid was inspected by DSC analysis. As a result, an endothermic peak resulting from melting of the hydrated solid that begins at around −40° C. and ends at around −27° C. and an endothermic peak resulting from ice melting observed between −10° C. and 1° C. were observed, as shown in FIG. 4. In FIG. 4, the left peak is the endothermic peak resulting from melting of the hydrated solid and the right peak is the endothermic peak resulting from ice melting. Although analysis was conducted up to 70° C., other thermal transition was not observed. Substantially the same results were obtained at other concentrations. Thus, the TK of mono-O-(phytanyl)pentaerythritol was concluded to be 0° C. or lower.

[2] = Formation and structure of cubic liquid crystals by polarizing microscopy (penetration method) and SAXS; assay type: physicochemical
Excerpt: Whether or not the amphiphilic lipid/water system forms cubic liquid crystals and whether or not such composition is type I or II can be easily determined by the penetration method. A small amount (several mg) of amphiphilic lipids is placed on a glass slide for a microscope, and slight pressure is applied with a glass cover to form a thin layer of amphiphilic lipids (diameter: about 1 to 5 mm) with a thickness of about 10 μm in the gap between the glass slide and the glass cover. Upon addition of water or an aqueous medium from a side of the gap between the glass slide and the glass cover by capillary action, water gradually invades the amphiphilic lipid thin layer from the exterior edge, and a water content gradient is formed from the amphiphilic lipid thin layer/water interface toward the inside of the amphiphilic lipid thin layer. Polarizing microscopic observation thereof enables the determination of a phase type formed depending on the concentration of the amphiphilic lipid/water system. […] In FIG. 2, 4 regions are observed. The rightmost region in the photograph indicates a water region, and the other regions indicate hydrous amphiphilic lipid regions. In the photograph, the rightmost regions indicates the highest water content and the leftmost region indicates a region of amphiphilic lipids that has not yet been penetrated by water. […] Since cubic liquid crystals are stably formed at the interface of excess water and the amphiphilic lipid portion, such crystals are found to be of type II.
To this end, whether or not the liquid crystal structure has cubic lattices may be investigated by the small-angle x-ray scattering (SAXS) assay. In this process, a sample of an amphiphilic lipid/water system at a given concentration may be introduced into a quartz X-ray capillary tube, the capillary may be sealed with an oxygen burner, and the resultant may be subjected to the SAXS assay.
The cubic liquid crystal composition of the present invention is not particularly limited. […] Thus, spaces and lattice constants can be easily determined. The peak values of small angle X-ray scattering or the cubic lattice size of cubic liquid crystals in the presence of an excess aqueous solvent are at constant levels regardless of the lipid concentration. The coexistence state of cubic liquid crystals and an excess aqueous medium can be confirmed by the SAXS assay. Thus, whether or not the cubic liquid crystals are of type II can be easily determined.
In equations, nL and nW are actually measurable, and ac can be measured by the SAXS experiment. Thus, the dhc value can be determined based on equations (ii) and (iii). […] Based on such comparison, whether or not the cubic liquid crystal structure is of a bicontinuous type can be determined.
Mono-O-(3,7,11,15-tetramethylhexadecyl)pentaerythritol (hereafter referred to as “mono-O-(phytanyl)pentaerythritol,” formula (5) above) and pure water were introduced into a mixing device, and incubation was carried out while performing 100 or more times of mixing operations at room temperature (23° C.) over the period of 48 hours. Thus, a homogeneously mixed sample of mono-O-(phytanyl)pentaerythritol/water system was obtained. This sample of mono-O-(phytanyl)pentaerythritol/water system appeared to be a transparent gel composition.
Subsequently, the thus obtained sample of mono-O-(phytanyl)pentaerythritol/water system (the concentration of the amphiphilic compound: 74.6% by mass) was observed by polarizing microscopy. In entire region of the lipid portions, optically isotropic textures peculiar to the cubic liquid crystals were observed (FIG. 3). In FIG. 3, the right region indicates water and the left region indicates the sample of mono-O-(phytanyl)pentaerythritol/water system. […] Such observation indicates the formation of cubic liquid crystals.
Subsequently, the sample of mono-O-(phytanyl)pentaerythritol/water system was confirmed to be a cubic liquid crystal by small-angle x-ray scattering (SAXS). […]

[3] = literature; cited from earlier work
[4] = lipid alone, total amphiphilic compound content 60% by mass (excess water)

With CC(C)CCCC(C)CCCC(C)CCCC(C)CCOC1OC[C@@H](O)C(O)C1O (some centres unmarked) [formula (13), reference compound] the “TK (Krafft temperature)” value ([1]; listed as β-XP) was “about 10 °C”, the “maximal temperature at which the cubic liquid crystal structure is formed” value [2] was 75 °C and the “diameter of the water channel of the cubic liquid crystals” value [2, 4] was 3.8 nm. For the same compound, the “lattice constant of the cubic liquid crystals” value [2, 4] was 9.2 nm and the Krafft temperature [3] was 10 °C.
In the case of CC(C)CCCC(C)CCCC(C)CCCC(C)CCCC(=O)OC[C@H](O)[C@H]1OC(=O)C(O)=C1O (stereo partly drawn) [formula (15), 6-O-(5,9,13,17-tetramethyloctadecanoyl)-L-ascorbic acid], the “Krafft temperature (° C.)” value ([1]; amphiphilic compound alone) is reported as 0 °C or lower, the “TK (Krafft temperature)” value [1] is reported as at most 0 °C and the lattice constant ([2]; Ia3d, 69% by mass, 30° C.) is reported as 17.4 nm. It also gave a lattice constant ([2]; Ia3d, 69% by mass, 40° C.) of 16.9 nm, a lattice constant ([2]; Ia3d, 69% by mass, 50° C.) of 17.0 nm and a lattice constant ([2]; Pn3m, 61% by mass, 1° C.) of 12.2 nm. The lattice constant ([2]; Pn3m, 61% by mass, 20° C.) was 12.2 nm, the lattice constant ([2]; Pn3m, 61% by mass, 30° C.) was 12.1 nm and the lattice constant ([2]; Pn3m, 61% by mass, 40° C.) was 11.4 nm. For the same compound, the lattice constant ([2]; Pn3m, 61% by mass, 50° C.) was 11.0 nm, the lattice constant ([2]; Pn3m, 61% by mass, 60° C.) was 10.1 nm and the “Temperature at which formation of cubic liquid crystals was observed (° C.)” value ([2]; Table 13, 69% by mass, two-phase system of Pn3m and Ia3d cubic liquid crystals) was 20 (Two-phase system of Pn3m and Ia3d ° C.
For CCCC/C=C\CCCCCCCC(=O)OCC(O)CO (centres unmarked) [monomyristolein], the Krafft temperature [3] is listed as 35 °C.
For CCCCCCCCCCCCCCCCCC(=O)OCC(O)CO (centres unmarked) [monooctadecanoin], the Krafft temperature [3] is given as 80 °C.
In the case of CCCCCCCC/C=C\CCCCCCCC(=O)OCC(O)CO (centres unmarked) [monoolein], the Krafft temperature [3] is listed as 15 °C.
In the case of CCCCCC/C=C\CCCCCCCCCC(=O)OC[C@H](O)CO [monovaccenin], the Krafft temperature [3] is listed as 15 °C.
For CC(C)CCCC(C)CCCC(C)CCCC(C)(O)C(O)CO (centres unmarked) [phytantriol, 3,7,11,15-tetramethylhexadecyl-1,2,3-triol], the “Temperature at which cubic liquid crystals are transformed into inverted hexagonal liquid crystals” value [3] is given as at least 40 °C.
In the case of monopentadecenoin, the Krafft temperature [3] is listed as 30 °C.
